Test results: patent US6664241B2, “Water-soluble amide derivatives of polyene macrolides and preparation and uses thereof” (Micrologix Biotech Inc., priority 2000, dated 2003)
≈ marks a conversion by molar mass, not a printed value.

Experiments:
[1] = test system: C. albicans; experiment: 5 day kidney bioburden evaluation in immunocompetent mice challenged with C. albicans; assay type: in vivo, Swiss-Webster mice; conditions: Candida albicans, ip, 120 h; intraperitoneally once daily for 5 days, immunocompetent mice, C. albicans; 50% of animals with 2 log10 reduction in kidney CFU; read-out: ED50 mice 5 day
Procedure: (§1) A variety of the compounds synthesized as described in Section 5, supra, were tested in various in vivo assays, as described below. The results of the various assays are provided in TABLE 3, presented at the end of this section. In all of the in vivo assays described, the test compounds, in the form of the aspartate salts, were formulated in an aqueous vehicle (5% mannitol in sterile water; OSMITROL, Baxter Healthcare, Deerfield, Ill.), followed by appropriate dilutions. The formulations were prepared fresh before dosing.
(§2) AmB and AME were also tested for comparison. For AmB, the commercially available FUNGIZONE (Bristol-Meyers Squibb Co.) was used. Reported values are based upon the weight of the AmB active ingredient, not on the basis of the weight of the FUNGIZONE powder. AME was formulated in OSMITROL as described for the test compounds.
Various polyene macrolide amide derivatives of the invention were evaluated for their protective effect when administered intraperitoneally once daily for 5 days to immunocompetent mice challenged with live C. albicans.
C. albicans was grown on Sabouraud dextrose agar (SDA) plates for 48 hr. Colonies were harvested and washed twice by centrifugation in phosphate-buffered saline (PBS). The washed pellets were resuspended in PBS and diluted to achieve the desired number of fungi per milliliter. A portion of the inoculum was plated on SDA plates to determine the colony-forming units (CFU) per milliliter.
(§3) Swiss-Webster mice (Simonsen Laboratories, Gilroy, Calif.) were administered by intravenous injection a single inoculum (0.2 mL) containing as estimated 2.0×10^5 CFU of C. albicans. The day of inoculation was designated as study day 0. Beginning three days after injection, mice were treated intraperitoneally with vehicle alone or formulated test compound once daily for 5 consecutive days.
(§4) The mice were observed daily from study day 0 through study day 10 (3 days after the last dose). Mice found dead or euthanized in extremis were removed from the study without further processing. Surviving mice were euthanized by inhalation of CO2 on study day 10 and both kidneys from each mouse were removed. Each pair of removed kidneys was homogenized in 3 mL of ice-cold PBS containing 10% glycerol. A portion of each homogenate was used to determine log10 CFU per kidney using SDA plates (48 hours of incubation at 30° C.). Kidney log10 CFU data were analyzed using a t-test. The criterion for a statistically significant response was set at p<0.01.
(§5) For comparison, the results for AmB and AME are also provided. Efficacy was defined for individual animals as a greater than 2 log10 reduction in kidney CFU relative to the mean vehicle control value.

[2] = test system: C. albicans; experiment: Minimum Inhibitory Concentrations (MICs) against C. albicans, NCCLS M27-A broth dilution; assay type: cell-based; conditions: Candida albicans, read-out: MIC
Procedure: For each compound synthesized, Minimum Inhibitory Concentrations (MICs) against C. albicans were determined as described in Reference Method for Broth Dilution Antifungal Susceptibility Testing of Yeasts, Approved Standard, NCCLS document M27-A (ISBN 1-56238-328-0), NCCLS, 940 West Valley Road, Suite 1400, Wayne, Pa. 19087, 1997.

[3] = Maximum non-lethal dose (NLD), single intravenous dose in mice; assay type: in vivo, Swiss-Webster male mice; conditions: test compounds as aspartate salts in 5% mannitol, AmB as FUNGIZONE
Procedure: as §1, §2
Maximum non-lethal dose (NLD) data were obtained for selected compounds. A single intravenous dose was administered to each of four mice (Swiss-Webster male mice; Simonsen Laboratories, Gilroy, Calif.) in several groups. The doses selected were based upon the NLDs of compounds of similar structures. After review of findings, higher or lower doses were administered and a NLD was determined. The results are tabulated in TABLE 3, below (NLD Acute Mice). The values for AmB and AME are provided for comparison

[4] = test system: C. albicans; experiment: 7 day kidney bioburden evaluation in neutropenic mice challenged with C. albicans; assay type: in vivo, Swiss-Webster mice; conditions: Candida albicans, ip, 168 h, intraperitoneally once daily for 7 days, 50% of animals with 2 log10 reduction in kidney CFU
Procedure: as §1, §2
Various polyene macrolide amide derivatives of the invention were evaluated for their protective effect when administered intraperitoneally once daily for 7 days to neutropenic mice challenged with live C. albicans.
as §3, with “made neutropenic by intravenous administration of 5-fluorouracil (150 mg/kg) on study day −1. On study day 0, all mice received” for “administered”, “5.0×10^4” for “2.0×10^5”, “the day” for “three days”, “infection (on study day 1),” for “injection,”, “compound,” for “compound”, “7” for “5”
as §4, with “day 1” for “day 0”, “day 8 (1 day” for “day 10 (3 days”, “day 8” for “day 10”
as §5

[5] = Two week range-finding toxicity study in mice; assay type: in vivo, CD-1 mice; conditions: both sexes, CD-1, mouse, in vivo, iv
Procedure: as §1, §2
Various polyene macrolide amide derivatives of the invention were evaluated to characterize their potential toxicity when administered subchronically by intravenous injection.
CD-1® mice (Charles River Laboratories, Portage, Mich.) were acclimated to laboratory conditions for at least 5 days before the start of dosing. During the acclimation period, the general condition of the mice was evaluated, and those considered healthy were used. The mice were randomly assigned to treatment groups using a stratified body weight regimen. Each treatment group consisted of 3 male and 3 female mice. The mice were housed in a room with a controlled environment and provided rodent chow and water ad libitum.
On the first day of dosing, the mice were approximately 7 to 9 weeks old and weighed 22 to 30 g. Doses were administered by intravenous injection once daily on study days 1 to 5 and 8 to 12. Dosages were selected based upon data from efficacy and toxicology studies, and ranged from 1.25 to 30 mg/kg/day. Clinical observations were recorded 0.5 hr after dosing on days 1, 3, 5, 8, 10, 12 and 15, and on any day a change was observed. Body weights were recorded prior to dosing and on study days 8 and 12, and on study day 15 at the completion of the in-life phase of the study.
Animals that were found in a moribund/deteriorating clinical state were euthanized (animal designated killed in extremis) by inhalation of CO2. The day of death for any animal found dead or killed in extremis was recorded. Any animal that died prematurely was removed from the study without further processing.
One day after completion of dosing (study day 16), all surviving mice were euthanized by inhalation of CO2. Their kidneys were preserved for histopathologic examination. The maximum no-observed-adverse-effect level (NOAEL) was determined on the basis of clinical and histopathologic findings. The values for AmB and AME are provided for comparison.

For `CC1[C@H](C)OC(=O)C[C@H](O)C[C@H](O)CC[C@@H](O)[C@H](O)C[C@H](O)C[C@]2(O)C[C@H](O)C(C(=O)N3CCN(c4ccccc4)CC3)C(C[C@@H](OC3O[C@H](C)[C@@H](O)[C@H](NC[C@@]4(O)OC[C@@H](O)[C@H](O)[C@@H]4O)[C@@H]3O)/C=C/C=C/C=C/C=C/C=C/C=C/C=C/[C@H](C)[C@H]1O)O2` (some centres unmarked) [Compound 136], the ED50 [1] was 40.2 mg/kg, the MIC [2] was 0.4 µg/mL (≈ 0.325 µM) and the NLD acute mice [3] was >15 mg/kg.

`CC1[C@H](C)OC(=O)C[C@H](O)C[C@H](O)CC[C@@H](O)[C@H](O)C[C@H](O)C[C@]2(O)C[C@H](O)C(C(=O)NCC(O)C(O)C(O)C(O)CO)C(C[C@@H](OC3O[C@H](C)[C@@H](O)[C@H](NC[C@@]4(O)OC[C@@H](O)[C@@H](O)[C@@H]4O)[C@@H]3O)/C=C/C=C/C=C/C=C/C=C/C=C/C=C/[C@H](C)[C@H]1O)O2` (some centres unmarked) [Compound 103] gave an ED50 [1] of 15 mg/kg, an MIC [2] of 1.1 µg/mL (≈ 0.88 µM) and an NLD acute mice [3] of 10 mg/kg.

In the case of `CC1[C@H](C)OC(=O)C[C@H](O)C[C@H](O)CC[C@@H](O)[C@H](O)C[C@H](O)C[C@]2(O)C[C@H](O)C(C(=O)N3CCN(Cc4ccccc4)CC3)C(C[C@@H](OC3O[C@H](C)[C@@H](O)[C@H](NC[C@@]4(O)OC[C@@H](O)[C@H](O)[C@@H]4O)[C@@H]3O)/C=C/C=C/C=C/C=C/C=C/C=C/C=C/[C@H](C)[C@H]1O)O2` (some centres unmarked) [Compound 134], the ED50 [1] is reported as > 30 mg/kg, the MIC [2] is reported as 1 µg/mL (≈ 0.804 µM) and the NLD acute mice [3] is reported as 30 mg/kg.

`CC1[C@H](C)OC(=O)C[C@H](O)C[C@H](O)CC[C@@H](O)[C@H](O)C[C@H](O)C[C@]2(O)C[C@H](O)C(C(=O)NCCCN3CCOCC3)C(C[C@@H](OC3O[C@H](C)[C@@H](O)[C@H](NC[C@@]4(O)OC[C@@H](O)[C@@H](O)[C@@H]4O)[C@@H]3O)/C=C/C=C/C=C/C=C/C=C/C=C/C=C/[C@H](C)[C@H]1O)O2` (some centres unmarked) [Compound 104] gave an ED50 [4] of 3.1 mg/kg, an ED50 [1] of 9 mg/kg and an NOAEL at 2 week ([5]; NOAEL 2 week mice clinical) of 10 mg/kg. For the same compound, the NOAEL at 2 week ([5]; NOAEL 2 week mice histological) was < 10 mg/kg, the MIC [2] was 2 µg/mL (≈ 1.65 µM) and the NLD acute mice [3] was 20 mg/kg.

With `CC1[C@H](C)OC(=O)C[C@H](O)C[C@H](O)CC[C@@H](O)[C@H](O)C[C@H](O)C[C@]2(O)C[C@H](O)C(C(=O)N3CCN(C)CC3)C(C[C@@H](OC3O[C@H](C)[C@@H](O)[C@H](NC[C@@]4(O)OC[C@@H](O)[C@H](O)[C@@H]4O)[C@@H]3O)/C=C/C=C/C=C/C=C/C=C/C=C/C=C/[C@H](C)[C@H]1O)O2` (some centres unmarked) [Compound 113] the ED50 [1] was 2 mg/kg, the NOAEL at 2 week ([5]; NOAEL 2 week mice clinical) was > 5 mg/kg and the NOAEL at 2 week ([5]; NOAEL 2 week mice histological) was 1.25 mg/kg. The MIC [2] was 3.3 µg/mL (≈ 2.82 µM) and the NLD acute mice [3] was 7.5 mg/kg.

For `CC1[C@H](C)OC(=O)C[C@H](O)C[C@H](O)CC[C@@H](O)[C@H](O)C[C@H](O)C[C@]2(O)C[C@H](O)C(C(=O)N3CCN(CCO)CC3)C(C[C@@H](OC3O[C@H](C)[C@@H](O)[C@H](NC[C@@]4(O)OC[C@@H](O)[C@H](O)[C@@H]4O)[C@@H]3O)/C=C/C=C/C=C/C=C/C=C/C=C/C=C/[C@H](C)[C@H]1O)O2` (some centres unmarked) [Compound 135], the ED50 [1] was 1.6 mg/kg, the NOAEL at 2 week ([5]; NOAEL 2 week mice clinical) was 1.25 mg/kg and the NOAEL at 2 week ([5]; NOAEL 2 week mice histological) was > 5 mg/kg. The MIC [2] was 6.3 µg/mL (≈ 5.26 µM) and the NLD acute mice [3] was 10 mg/kg.

In the case of `CC1[C@H](C)OC(=O)C[C@H](O)C[C@H](O)CC[C@@H](O)[C@H](O)C[C@H](O)C[C@]2(O)C[C@H](O)C(C(=O)NCCCN3CCOCC3)C(C[C@@H](OC3O[C@H](C)[C@@H](O)[C@H](NC[C@@]4(O)OC[C@@H](O)[C@H](O)[C@@H]4O)[C@@H]3O)/C=C/C=C/C=C/C=C/C=C/C=C/C=C/[C@H](C)[C@H]1O)O2` (some centres unmarked) [Compound 111], the ED50 [1] is reported as 7 mg/kg, the NOAEL at 2 week ([5]; NOAEL 2 week mice clinical) is reported as < 7 mg/kg and the NOAEL at 2 week ([5]; NOAEL 2 week mice histological) is reported as 7 mg/kg. The MIC [2] was 2.7 µg/mL (≈ 2.23 µM) and the NLD acute mice [3] was 20 mg/kg.

In the case of `CC1[C@H](C)OC(=O)C[C@H](O)C[C@H](O)CC[C@@H](O)[C@H](O)C[C@H](O)C[C@]2(O)C[C@H](O)C(C(=O)NCCN3CCCCC3)C(C[C@@H](OC3O[C@H](C)[C@@H](O)[C@H](NC[C@@]4(O)OC[C@@H](O)[C@@H](O)[C@@H]4O)[C@@H]3O)/C=C/C=C/C=C/C=C/C=C/C=C/C=C/[C@H](C)[C@H]1O)O2` (some centres unmarked) [Compound 107], the ED50 [1] is reported as 28 mg/kg, the MIC [2] is reported as 2 µg/mL (≈ 1.67 µM) and the NLD acute mice [3] is reported as >40 mg/kg.

With `CC1[C@H](C)OC(=O)C[C@H](O)C[C@H](O)CC[C@@H](O)[C@H](O)C[C@H](O)C[C@]2(O)C[C@H](O)C(C(=O)N3CCN(C)CC3)C(C[C@@H](OC3O[C@H](C)[C@@H](O)[C@H](NC[C@@]4(O)OC[C@@H](O)[C@@H](O)[C@@H]4O)[C@@H]3O)/C=C/C=C/C=C/C=C/C=C/C=C/C=C/[C@H](C)[C@H]1O)O2` (some centres unmarked) [Compound 106] the ED50 [1] was 3 mg/kg, the NOAEL at 2 week ([5]; NOAEL 2 week mice clinical) was 3 mg/kg and the NOAEL at 2 week ([5]; NOAEL 2 week mice histological) was 6 mg/kg. The MIC [2] was 2 µg/mL (≈ 1.71 µM) and the NLD acute mice [3] was <15 mg/kg.

Compound `CC1[C@H](C)OC(=O)C[C@H](O)C[C@H](O)CC[C@@H](O)[C@H](O)C[C@H](O)C[C@]2(O)C[C@H](O)C(C(=O)NCC(O)C(O)C(O)C(O)CO)C(C[C@@H](OC3O[C@H](C)[C@@H](O)[C@H](NC[C@@]4(O)OC[C@@H](O)[C@H](O)[C@@H]4O)[C@@H]3O)/C=C/C=C/C=C/C=C/C=C/C=C/C=C/[C@H](C)[C@H]1O)O2` (some centres unmarked) [Compound 110] has an ED50 [1] of 15 mg/kg, an MIC [2] of 1 µg/mL (≈ 0.8 µM) and an NLD acute mice [3] of 10 mg/kg.

For `CCN1CCN(C(=O)C2C3C[C@@H](OC4O[C@H](C)[C@@H](O)[C@H](NC[C@@]5(O)OC[C@@H](O)[C@H](O)[C@@H]5O)[C@@H]4O)/C=C/C=C/C=C/C=C/C=C/C=C/C=C/[C@H](C)[C@@H](O)C(C)[C@H](C)OC(=O)C[C@H](O)C[C@H](O)CC[C@@H](O)[C@H](O)C[C@H](O)C[C@](O)(C[C@@H]2O)O3)CC1` (some centres unmarked) [Compound 133], the ED50 [1] was 4.1 mg/kg, the NOAEL at 2 week ([5]; NOAEL 2 week mice clinical) was < 5 mg/kg and the NLD acute mice [3] was 15 mg/kg.
